Reference: US7612225B2, “Crystal of triterpene derivative” (Shionogi & Co., Ltd., priority 2004, dated 2009)

Columns and labels:
[1] = Storage stability (40° C., 75% RH, 6 months; HPLC); type: physicochemical
Procedure: The form I dry crystals and the form II crystals of Compound (I) were used as samples. About 3 g of each of the samples was placed in a double polyethylene bag, and the bag containing the sample was stored in an aluminum can at 40° C. and 75% RH. After storage for 6 months, the amount of Compound (I) and the total amount of related substances of Compound (I) were measured by HPLC.

[2] = Stability against light (30±2° C., 1,200,000 or 3,600,000 Lux·hr; HPLC); type: physicochemical; settings: for change of total amount of related substances of Compound (I) (in words): after storage under light of 1,200,000 or 3,600,000 Lux·hr
Procedure: The form I dry crystals and the form II crystals of Compound (I) were used as samples. About 3 g of each of the samples was placed in each petri dish, and was then stored at an average temperature of 30±2° C. under light of 1,200,000 Lux·hr or 3,600,000 Lux·hr. After storage, the amount of Compound (I) and the total amount of related substances of Compound (I) were measured by HPLC.

[3] = 6 months at 40° C. and 75% RH, double polyethylene bag in aluminum can
[4] = 1,200,000 Lux·hr, 30±2° C., petri dish

SMILES	Amount of analogue B ([1]; 6 months at 40° C. and 75% RH) [%]	Total amount of related substances(%) ([1]; 6 months at 40° C. and 75% RH)	storage stability (in words) ([1]; 6 months at 40° C. and 75% RH)	Amount of Compound (I)(%) [1, 3] [%]	Amount of Compound (I)(%) ([1]; Initial value)	Amount of analogue B ([1]; Initial value) [%]	Total amount of related substances(%) ([1]; Initial value)	change of total amount of related substances of Compound (I) (in words) ([1]; after storage for 6 months at 40° C. and 75% RH, listed as form II crystals)	Total amount of related substances(%) ([2]; 1,200,000 Lux·hr, 30±2° C.)	Amount of Compound (I)(%) [2, 4] [%]	Total amount of related substances(%) ([2]; 3,600,000 Lux·hr, 30±2° C.)	Amount of Compound (I)(%) ([2]; 3,600,000 Lux·hr, 30±2° C., petri dish)	Amount of Compound (I)(%) ([2]; Initial value)	Total amount of related substances(%) ([2]; Initial value)	change of total amount of related substances of Compound (I) (in words) ([2]; listed as form II crystals)	stability against light (in words) ([2]; light of 1,200,000 or 3,600,000 Lux·hr)	change of amount of analogue B (in words) ([1]; after storage for 6 months at 40° C. and 75% RH)	change of total amount of related substances of Compound (I) (in words) ([1]; after storage for 6 months at 40° C. and 75% RH, listed as form I dry crystals)	change of total amount of related substances of Compound (I) (in words) ([2]; listed as form I dry crystals)
CC1(C)CC[C@]2(C(=O)O)CC[C@]3(COC(=O)/C=C/c4cc(O)ccc4NC(=O)/C=C/C(=O)O)C(=CCC4[C@@]5(C)CCC(=O)C(C)(C)C5CC[C@]43C)C2C1 (some centres unmarked) [Form II crystal]	<0.05	0.17	stable	98.6	98.9	<0.05	0.21	hardly changed	0.17	99.4	0.18	99.3	100.3	0.15	hardly changed	stable against light	–	–	–
CC1(C)CC[C@]2(C(=O)O)CC[C@]3(COC(=O)/C=C/c4cc(O)ccc4NC(=O)/C=C/C(=O)O)C(=CCC4[C@@]5(C)CCC(=O)C(C)(C)C5CC[C@]43C)C2C1 (some centres unmarked) [Form I dry crystal, reference compound]	0.21	0.43	–	97.8	99.8	<0.05	0.16	–	0.27	99.2	–	–	99.8	0.16	–	–	significantly increased	increased	increased
